One block for each compound: values may come before it. Active and inactive are the calls of the source. No cut-off for these calls is given here.
Tests used:
NUGC-3 = experiment: Anticancer activity against human […] cells assessed as growth inhibition incubated for 48 hrs by sulforhodamine B method; format: functional
NCI-H23 = experiment: Anticancer activity against human NCI-H23 cells assessed as growth inhibition incubated for 48 hrs by sulforhodamine B method; format: functional
MDA-MB-231 [1] = experiment: Anticancer activity against human MDA-MB-231 cells assessed as growth inhibition incubated for 48 hrs by sulforhodamine B method; format: functional
PC-3 = experiment: Anticancer activity against human PC-3 cells assessed as growth inhibition incubated for 48 hrs by sulforhodamine B method; format: functional
HCT-15 = experiment: Anticancer activity against human HCT-15 cells assessed as growth inhibition incubated for 48 hrs by sulforhodamine B method; format: functional
ACHN = experiment: Anticancer activity against human […] cells assessed as growth inhibition incubated for 48 hrs by sulforhodamine B method; format: functional
[2] = Inhibition of NF-kappaB transcriptional activity in mouse RAW264.7 cells harbouring NF-kappaB-SEAP-NPT reporter plasmid assessed as reduction in LPS-induced SEAP expression incubated for 16 hr with LPS; format: cell-based
MDA-MB-231 [3] = experiment: Inhibition of NF-kappaB in human MDA-MB-231 cells assessed as reduction in LPS-induced NF-kappaB nuclear translocation at 10 uM treated with LPS for 24 hrs by Western blotting analysis; format: cell-based
MDA-MB-231 [4] = experiment: Inhibition of NF-kappaB in human MDA-MB-231 cells assessed as reduction in LPS-induced NF-kappaB nuclear translocation at 10 uM treated with LPS for 24 hrs by immunocytochemical analysis; format: cell-based

SMILES: COc1ccccc1NC(=O)C1NCCc2ccccc21 (stereo unspecified)
GI50 (NUGC-3): > 10 µM

SMILES: O=C(Nc1ccc(O)cc1)c1nccc2ccccc12
GI50 (NUGC-3): > 10 µM

SMILES: O=C(Nc1cccc(O)c1)c1nccc2ccccc12
GI50 (NUGC-3): > 10 µM

GI50 (NCI-H23): 3.39 µM | GI50 (MDA-MB-231 [1]): 5.05 µM | GI50 (PC-3): 4.25 µM | GI50 (HCT-15): 5.73 µM | GI50 (ACHN): 5.32 µM
SMILES: O=C(Nc1ccc(O)cc1)C1NCCc2ccccc21 (stereo unspecified)
GI50 (NUGC-3): 4.37 µM

GI50 (NCI-H23): 3.34 µM | GI50 (MDA-MB-231 [1]): 4.35 µM | GI50 (PC-3): 4.49 µM | GI50 (HCT-15): 5.11 µM | GI50 (ACHN): 3.47 µM
SMILES: O=C(Nc1ccc(C(F)(F)F)cc1)C1c2ccccc2CCN1C(=O)c1ccc(Cl)cc1 (stereo unspecified)
GI50 (NUGC-3): 4.2 µM

SMILES: COc1ccc(NC(=O)C2NCCc3ccccc32)cc1 (stereo unspecified)
GI50 (NUGC-3): > 10 µM

GI50 (NCI-H23): 4.4 µM | GI50 (MDA-MB-231 [1]): 4.74 µM | GI50 (PC-3): 6.59 µM | GI50 (HCT-15): 5.44 µM | GI50 (ACHN): 5.2 µM
SMILES: O=C(Nc1ccc(C(F)(F)F)cc1)C1NCCc2ccccc21 (stereo unspecified)
GI50 (NUGC-3): 4.22 µM

SMILES: O=C(Nc1cccc(C(F)(F)F)c1)C1c2ccccc2CCN1C(=O)c1ccc(Cl)cc1 (stereo unspecified)
GI50 (NUGC-3): > 10 µM

SMILES: COc1cccc(NC(=O)c2nccc3ccccc23)c1
GI50 (NUGC-3): > 10 µM

SMILES: O=C(Nc1ccc(C(F)(F)F)cc1)c1nccc2ccccc12
GI50 (NUGC-3): > 10 µM

SMILES: O=C(Nc1cccc(Cl)c1)c1nccc2ccccc12
GI50 (NUGC-3): > 10 µM

SMILES: O=C(Nc1cccc(C(F)(F)F)c1)C1NCCc2ccccc21 (stereo unspecified)
GI50 (NUGC-3): > 10 µM

SMILES: O=C(Nc1ccc(O)cc1)C1c2ccccc2CCN1C(=O)c1ccc(Cl)cc1 (stereo unspecified)
GI50 (NUGC-3): > 10 µM

SMILES: O=C(Nc1ccccc1O)C1NCCc2ccccc21 (stereo unspecified)
GI50 (NUGC-3): > 10 µM

SMILES: O=C(Nc1ccccc1C(F)(F)F)C1NCCc2ccccc21 (stereo unspecified)
GI50 (NUGC-3): > 10 µM

SMILES: O=C(Nc1ccccc1Cl)c1nccc2ccccc12
GI50 (NUGC-3): > 10 µM

SMILES: O=C(Nc1cccc(C(F)(F)F)c1)c1nccc2ccccc12
GI50 (NUGC-3): > 10 µM

SMILES: O=C(Nc1ccccc1C(F)(F)F)C1c2ccccc2CCN1C(=O)c1ccc(Cl)cc1 (stereo unspecified)
GI50 (NUGC-3): > 10 µM

SMILES: COc1cccc(NC(=O)C2NCCc3ccccc32)c1 (stereo unspecified)
GI50 (NUGC-3): > 10 µM

SMILES: COc1ccc(NC(=O)c2nccc3ccccc23)cc1
GI50 (NUGC-3): > 10 µM

GI50 (NCI-H23): 2.42 µM | GI50 (MDA-MB-231 [1]): 3.21 µM | GI50 (PC-3): 2.89 µM | GI50 (HCT-15): 3.62 µM | GI50 (ACHN): 2.96 µM
SMILES: COc1cccc(NC(=O)C2c3ccccc3CCN2C(=O)c2ccc(Cl)cc2)c1 (stereo unspecified)
GI50 (NUGC-3): 2.14 µM

SMILES: O=C(Nc1ccccc1O)C1c2ccccc2CCN1C(=O)c1ccc(Cl)cc1 (stereo unspecified)
GI50 (NUGC-3): > 10 µM

SMILES: O=C(Nc1ccc(Cl)cc1)c1nccc2ccccc12
GI50 (NUGC-3): > 10 µM

SMILES: O=C(Nc1cccc(O)c1)C1NCCc2ccccc21 (stereo unspecified)
GI50 (NUGC-3): > 10 µM

SMILES: O=C(Nc1cccc(O)c1)C1c2ccccc2CCN1C(=O)c1ccc(Cl)cc1 (stereo unspecified)
GI50 (NUGC-3): > 10 µM

SMILES: COc1ccccc1NC(=O)c1nccc2ccccc12
GI50 (NUGC-3): > 10 µM

IC50 [2]: 40.4 µM
SMILES: COc1cc2c(cc1O)CCC(C(=O)Nc1ccccc1)O2 (stereo unspecified)

GI50 (NCI-H23): 0.072 µM | GI50 (MDA-MB-231 [1]): 0.086 µM | GI50 (PC-3): 0.09 µM | GI50 (HCT-15): 0.076 µM | GI50 (ACHN): 0.088 µM
SMILES: COc1cccc2c1C(=O)c1c(O)c3c(c(O)c1C2=O)C[C@@](O)(C(=O)CO)C[C@@H]3O[C@H]1C[C@H](N)[C@H](O)[C@H](C)O1 [DOXORUBICIN]

GI50 (NCI-H23): 1.94 µM | GI50 (MDA-MB-231 [1]): 2.28 µM | GI50 (PC-3): 2.01 µM | GI50 (HCT-15): 1.74 µM | GI50 (ACHN): 1.98 µM
SMILES: COc1ccccc1NC(=O)C1c2ccccc2CCN1C(=O)c1ccc(Cl)cc1 (stereo unspecified)
inhibition (MDA-MB-231 [3]): Dose-Dependent Effect | GI50 (NUGC-3): 1.59 µM | inhibition (MDA-MB-231 [4]): Active

SMILES: O=C(Nc1ccccc1O)c1nccc2ccccc12
GI50 (NUGC-3): > 10 µM

SMILES: O=C(Nc1ccccc1C(F)(F)F)c1nccc2ccccc12
GI50 (NUGC-3): > 10 µM

GI50 (NCI-H23): 2.02 µM | GI50 (MDA-MB-231 [1]): 2.71 µM | GI50 (PC-3): 2.56 µM | GI50 (HCT-15): 3.52 µM | GI50 (ACHN): 2.65 µM
SMILES: O=C(Nc1cc(C(F)(F)F)cc(C(F)(F)F)c1)C1c2ccccc2CCN1C(=O)c1ccc(Cl)cc1 (stereo unspecified)
GI50 (NUGC-3): 2.83 µM

SMILES: O=C(Nc1cc(C(F)(F)F)cc(C(F)(F)F)c1)C1NCCc2ccccc21 (stereo unspecified)
GI50 (NUGC-3): > 10 µM

SMILES: O=C(Nc1cc(C(F)(F)F)cc(C(F)(F)F)c1)c1nccc2ccccc12
GI50 (NUGC-3): > 10 µM

GI50 (NCI-H23): 4.34 µM | GI50 (MDA-MB-231 [1]): 4.9 µM | GI50 (PC-3): 3.48 µM | GI50 (HCT-15): 6.08 µM | GI50 (ACHN): 3.67 µM
SMILES: COc1ccc(NC(=O)C2c3ccccc3CCN2C(=O)c2ccc(Cl)cc2)cc1 (stereo unspecified)
GI50 (NUGC-3): 3.63 µM

Source: ChEMBL document CHEMBL4823319, “Design, synthesis, and biological evaluation of potent 1,2,3,4-tetrahydroisoquinoline derivatives as anticancer agents targeting NF-κB signaling pathway” (Bioorg Med Chem, 2021)
